Laboratory results from patent US11331020B2 (TRUSTEES OF BOSTON UNIVERSITY, priority 2020, dated 2022).
Like-named read-outs stand apart in the source and are kept apart here.

Tests used:
NicA2 [1] = target: T1, NicA2 (Pseudomonas putida, UniProt F8G0P2); type: biochemical, Pseudomonas putida S16; conditions: for effect on the response to nicotine: 200 μM nicotine solution added
T1 construct: poly-histidine; made in house; host or cells: E. coli BL21 (DE3)
Procedure: (§1) Chronoamperometric responses were recorded overtime, with a potential −0.2 V (versus Ag/AgCl). At the beginning of the experiment, 30 μL 1×DPBS was added to the biosensor, followed by an addition of 30 μL nicotine solution at predefined time point. To evaluate the selectivity of the sensor chronoamperometric responses to nicotine were measured in the presence of the common interferents at relevant physiological concentrations in sweat (see e.g., Table 4). Addition of 30 μL 200 μM nicotine solution to 30 μL mixture was performed at a predefined time point and the current was recorded over time. Similar experiments were performed to evaluate the selectivity of the sensor to cotinine. Current was recorded where 30 μL 200 μM nicotine solution was added to 30 μL cotinine solutions.
(§2) Chronoamperometric responses were recorded at −0.2 V vs. a Ag/AgCl reference electrode.

NicA2 [2] = target: T2, NicA2 (Pseudomonas putida, UniProt F8G0P2, N462Y/W427Y); type: biochemical, Pseudomonas putida S16; conditions: FIG. 17C (N462Y/W427Y mutant), FIG. 10D
T2 construct: poly-histidine; made in house; host or cells: E. coli BL21 (DE3)
Procedure: as §1, §2

[3] = Activity of NicA2 mutants versus wild type NicA2; type: biochemical; conditions: compared to wild type and other NicA2 mutants
Source text: In some embodiments, the size of the working electrode is in the range of 5-8 π mm^2, or 8-10π mm^2, or 10-12π mm^2, or 12-15π mm^2, or greater than 15π mm^2.

T1 sequence (F8G0P2 39-482): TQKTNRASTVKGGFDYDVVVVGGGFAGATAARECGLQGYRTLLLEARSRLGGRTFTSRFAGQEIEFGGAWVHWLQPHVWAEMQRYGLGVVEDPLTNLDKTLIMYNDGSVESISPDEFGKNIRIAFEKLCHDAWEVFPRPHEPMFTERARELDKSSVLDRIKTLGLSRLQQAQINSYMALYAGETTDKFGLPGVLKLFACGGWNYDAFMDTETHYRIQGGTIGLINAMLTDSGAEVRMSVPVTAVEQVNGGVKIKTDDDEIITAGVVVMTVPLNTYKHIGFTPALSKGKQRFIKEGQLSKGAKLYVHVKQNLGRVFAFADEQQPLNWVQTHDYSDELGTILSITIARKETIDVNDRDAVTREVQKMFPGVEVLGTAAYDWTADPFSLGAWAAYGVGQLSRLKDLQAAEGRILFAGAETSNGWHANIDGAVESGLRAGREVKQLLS

## CN1C(=O)CC[C@H]1c1cccnc1 [cotinine]
NicA2 [1]; chronoamperometry
  effect on the response to nicotine: minimally affected the nicotine response
NicA2 [1]; chronoamperometry, listed as Cotinine
  effect on the response to nicotine: minimal effect upon the nicotine response
NicA2 [2]
  current produced by NicA2 with the analyte: did not produce a current

## c1cncc(C2=NCCC2)c1 [myosmine]
NicA2 [1]; added during a chronoamperometric experiment with nicotine
  reduction of signal: approximately 50%
NicA2 [1]; chronoamperometry, no nicotine
  response from the substance alone: Minimal responses

B1: N462Y/W427Y: mutant NicA2 enzyme, SEQ ID NO: 4 (protein)
chain: MSDKTKTNEGFSRRSFIGSAAVVTAGVAGLGAIDAASATQKTNRASTVKGGFDYDVVVVGGGFAGATAARECGLQGYRTLLLEARSRLGGRTFTSRFAGQEIEFGGAWVHWLQPHVWAEMQRYGLGVVEDPLTNLDKTLIMYNDGSVESISPDEFGKNIRIAFEKLCHDAWEVFPRPHEPMFTERARELDKSSVLDRIKTLGLSRLQQAQINSYMALYAGETTDKFGLPGVLKLFACGGWNYDAFMDTETHYRIQGGTIGLINAMLTDSGAEVRMSVPVTAVEQVNGGVKIKTDDDEIITAGVVVMTVPLNTYKHIGFTPALSKGKQRFIKEGQLSKGAKLYVHVKQNLGRVFAFADEQQPLNWVQTHDYSDELGTILSITIARKETIDVNDRDAVTREVQKMFPGVEVLGTAAYDWTADPFSLGAYAAYGVGQLSRLKDLQAAEGRILFAGAETSNGWHAYIDGAVESGLRAGREVKQLLSLEHHHHHH
[3]
  oxidation activity of NicA2 mutant: increased oxidative activity
